Values quoted from earlier work as cited in article PMC4552746, “Conformational Properties of Seven Toac-Labeled Angiotensin I Analogues Correlate with Their Muscle Contraction Activity and Their Ability to Act as ACE Substrates” (PLoS ONE, 2015).

System: thoracic rabbit aorta strips
Parameters: method as in earlier work
Details: ref 48 (Cordopatis and Theodoropoulos)

## [1-Aib]-angiotensin II [Aib^1-AngII]
  Potency, in words: displays high potency
